{"source": "patent US12473305B2", "about": "“Pyrazole boronic acid compound, pharmaceutical composition containing same, and uses thereof” (BEIJING SONGRUN PHARMACEUTICAL TECHNOLOGY CO., LTD., priority 2020, dated 2025)", "key": {"[1]": {"test_system": "A549", "assay": "MTT antitumor spectrum, A549", "format": "cell-based", "conditions": "Homo sapiens, 72 h", "description": "(§1) The activity of compound 30 was evaluated by MTT method against seven tumor cell models, A549, A375, HCT116, MDA-MB-231, HepG2, PC3 and MCF-7. All cells used in the study were prepared at a concentration of 3.5×10^3 cells/mL, and each […] cell suspension was inoculated on a 96-well microtiter plate for 24 hours (37° C., 5% CO2). Then different concentrations of compound 30 were added, incubated for 72 hours; and for the control group, equivalent concentrations of DMSO (final concentration 0.5%) were added. The number of viable cells was measured by MTT (3-(4,5-dimethylthiazol-2-yl)-diphenyl tetrazolium bromide) method, and the OD value at 492/620 nm was recorded. The IC50 value was calculated by Prism-Graphpad software based on the results of triplicate experiments."}, "[2]": {"test_system": "A375", "assay": "MTT antitumor spectrum, A375", "format": "cell-based", "conditions": "Homo sapiens, A-375, 72 h", "description": "as §1"}, "[3]": {"test_system": "HCT116", "assay": "MTT antitumor spectrum, HCT116", "format": "cell-based", "conditions": "Homo sapiens, HCT-116, 72 h", "description": "as §1"}, "[4]": {"test_system": "MDA-MB-231", "assay": "MTT antitumor spectrum, MDA-MB-231", "format": "cell-based", "conditions": "Homo sapiens, 72 h", "description": "as §1"}, "[5]": {"test_system": "HepG2", "assay": "MTT antitumor spectrum, HepG2", "format": "cell-based", "conditions": "Homo sapiens, 72 h", "description": "as §1"}, "[6]": {"test_system": "PC3", "assay": "MTT antitumor spectrum, PC3", "format": "cell-based", "conditions": "Homo sapiens, PC-3, 72 h", "description": "as §1"}, "[7]": {"test_system": "MCF-7", "assay": "MTT antitumor spectrum, MCF-7", "format": "cell-based", "conditions": "Homo sapiens, MCF7, 72 h", "description": "as §1"}, "[8]": {"test_system": "liver cancer cell line HepG2", "assay": "CellTiter-Glo tumor cell proliferation, HepG2", "format": "cell-based, human", "conditions": "Homo sapiens, HepG2, 72 h", "description": "The effect of compounds on tumor cell proliferation was detected by CellTiter-Glo method. Human melanoma cell line A375, non-small cell lung cancer cell line A549, human lung adenocarcinoma cell line H1299, colorectal cancer cell line HCT116, liver cancer cell line HepG2 and gastric cancer cell line MGC80-3 were cultured in vitro. The cells were collected after growing to the logarithmic growth phase, centrifuged at 1000 rpm for 5 min, and suspended in an appropriate amount of medium after discarding the supernatant, and the cell concentration was adjusted to 2×10^4/mL. The cell suspension was inoculated onto the 384-well cell culture plate, with 50 μL per well. After being cultured in a cell incubator (37° C., 5% CO2) for 24 h, 5 μL of drug diluted by the cell culture medium was added into each well for the treatment group. Each drug was provided in triplicate. After 72 h incubation in the incubator, 20 μL of CellTiter-Glo was added into each well, and the relative luminescence unit (RLU) was measured with Multimode Microplate Reader Varioskan Flash (Thermo Scientific, USA) after placed at 37° C. for 20 min, and compared with the RLU of the control group. SigmaPlot 10.0 software was used to calculate the inhibition rate and IC50 value."}, "[9]": {"assay": "Pharmacokinetic test in rats (IV and PO)", "format": "in vivo, male SD rats", "description": "This experiment includes the PO group and IV group, with three animals in each group. For the PO group, about 0.25 mL of whole blood was collected from orbital venous plexus before administration, and 15 min, 30 min, 1 h, 2 h, 4 h, 7 h and 24 h after administration, and for the IV group, about 0.25 mL of whole blood was collected from orbital venous plexus before administration, and 5 min, 15 min, 30 min, 1 h, 2 h, 4 h, 7 h and 24 h after administration, which were placed in heparin anticoagulant tube. After the blood collection, the blood collection tubes containing anticoagulant agent was inverted several times to fully mix, and placed on wet ice before centrifugation. Within 60 minutes after blood collection, it was centrifuged at 8000 rpm under 2 to 8° C. for 10 minutes to separate red blood cells and obtain plasma samples. The plasma sample was transferred to a cryogenic tube and stored at −75±15° C. until analysis. 50 μL of the plasma sample was taken and added with 5 μL of acetonitrile:water (1:1, v/v), and added with 200 μL of 0.1% formic acid-acetonitrile, centrifuged (12000 rpm, 15 min); the supernatant was diluted in 1:1 with ultrapure water. The plasma drug concentration was analyzed by using LC-MS/MS method. Microsoft EXCEL was used to statistically describe the experimental data with mean, deviation % and standard deviation (SD). The pharmacokinetic parameters were calculated with WinNonlin 8.1 software. The following pharmacokinetic parameters were calculated: CL (clearance), Vd (apparent volume of distribution), T1/2 (elimination half-life time), Cmax (peak concentration), Tmax (peak time), AUC (area under the blood concentration-time curve), and F % (bioavailability)."}, "[10]": {"assay": "Maximum tolerated dose in mice", "format": "in vivo", "conditions": "for body weight (M ± S.E.): in g (unit assumed)", "description": "Healthy non-tumor bearing female NOD/SCID mice (purchased from Sipeifu Biotechnology Co., Ltd.) were selected for the Maximum Tolerated Dose (MTD) test. Compound 39 was administered to NOD/SCID mice directly through a single tail vein injection, and the vehicle (0.3 mL DMSO, 0.27 mL Tween-80, 2.43 mL normal saline) was used as the control group. According to the dose of compound 39, the administration group was divided into three groups: low-dose group (10 mg/kg), medium-dose group (20 mg/kg), and high-dose group (30 mg/kg), with seven mice in each group."}, "[11]": {"conditions": "male, SD, rat, IV 1 mg/kg, single, plasma"}, "[12]": {"conditions": "male, SD, rat, PO 10 mg/kg, single, plasma"}}, "data": [{"smiles": "CC(C)C[C@H](NC(=O)Cn1nc(-c2cccc(OCCN3CCOCC3)c2)cc1-c1ccccc1)B(O)O.Cl", "note": "[Compound 30, (R)-(3-methyl-1-(2-(3-(3-(2-morpholinoethoxy)phenyl)-5-phenyl-1H-pyrazol-1-yl)-acetamido)butyl)boronic acid hydrochloride]", "values": [{"measurement": "IC50", "setting": "[1]", "result": 3.05, "unit": "µM"}, {"measurement": "IC50", "setting": "[2]", "result": 820, "unit": "nM"}, {"measurement": "IC50", "setting": "[3]", "result": 630, "unit": "nM"}, {"measurement": "IC50", "setting": "[4]", "result": 940, "unit": "nM"}, {"measurement": "IC50", "setting": "[5]", "result": 1080, "unit": "nM"}, {"measurement": "IC50", "setting": "[6]", "result": 820, "unit": "nM"}, {"measurement": "IC50", "setting": "[7]", "result": 690, "unit": "nM"}]}, {"smiles": "CC(C)C[C@H](NC(=O)Cn1nc(-c2cccc(OCCN3CCN(c4ccccc4)CC3)c2)cc1-c1ccccc1)B(O)O.Cl", "note": "[Compound 39, (R)-(3-methyl-1-(2-(5-phenyl-3-(3-(2-(4-phenylpiperazin-1-yl)ethoxy)phenyl)-1H-pyrazol-1-yl)acetamido)butyl)boronic acid hydrochloride]", "values": [{"measurement": "IC50", "setting": "[8]", "result": 54, "unit": "nM"}, {"measurement": "clearance (in words)", "setting": "[9]; IV 1 mg/kg", "result": "medium clearance"}, {"measurement": "CL_obs", "setting": "[9]; IV 1 mg/kg, single, plasma, hydrochloride, 1 mg/kg", "result": "21.0 ± 3.4", "unit": "mL/min/kg"}, {"measurement": "distribution in vivo (in words)", "setting": "[9]; IV 1 mg/kg, Vd higher than total liquid volume of SD rats", "result": "widely distributed in vivo"}, {"measurement": "absorption (in words)", "setting": "[9]; PO 10 mg/kg", "result": "rapid absorption"}, {"measurement": "bioavailability", "setting": "[9]; male, SD, rat, plasma, PO 10 mg/kg vs IV 1 mg/kg, read-out: F (bioavailability)", "result": "2.42 ± 1.91", "unit": "%"}, {"measurement": "AUC(0-inf)", "setting": "[9]; [11]", "result": "807 ± 123", "unit": "ng·h/mL"}, {"measurement": "AUC(0-t)", "setting": "[9]; [11]", "result": "767 ± 117", "unit": "ng·h/mL"}, {"measurement": "C0", "setting": "[9]; [11]", "result": "846 ± 183", "unit": "ng/mL"}, {"measurement": "Cmax", "setting": "[9]; [11]", "result": "671 ± 124", "unit": "ng/mL"}, {"measurement": "Tmax", "setting": "[9]; [11]", "result": 4.98, "unit": "min"}, {"measurement": "Vd", "setting": "[9]; [11]", "result": "13.9 ± 2.8", "unit": "L/kg"}, {"measurement": "half-life", "setting": "[9]; [11]", "result": "458 ± 18", "unit": "min"}, {"measurement": "AUC(0-inf)", "setting": "[9]; [12]", "result": "191 ± 147", "unit": "ng·h/mL"}, {"measurement": "AUC(0-t)", "setting": "[9]; [12]", "result": "186 ± 147", "unit": "ng·h/mL"}, {"measurement": "Cmax", "setting": "[9]; [12]", "result": "74.8 ± 82", "unit": "ng/mL"}, {"measurement": "Tmax", "setting": "[9]; [12]", "result": "19.8 ± 8.4", "unit": "min"}, {"measurement": "half-life", "setting": "[9]; [12]", "result": "97.8 ± 21.6", "unit": "min"}, {"measurement": "body weight (M ± S.E.)", "setting": "[10]; High-dose 30 mg/kg single tail vein injection, Day 0 (day before administration)", "result": "24.2 ± 0.5"}, {"measurement": "body weight (M ± S.E.)", "setting": "[10]; High-dose 30 mg/kg single tail vein injection, Day 1", "result": "24.0 ± 0.5"}, {"measurement": "body weight (M ± S.E.)", "setting": "[10]; High-dose 30 mg/kg single tail vein injection, Day 2", "result": "22.4 ± 0.6"}, {"measurement": "body weight (M ± S.E.)", "setting": "[10]; High-dose 30 mg/kg single tail vein injection, Day 3", "result": "22.5 ± 0.6"}, {"measurement": "body weight (M ± S.E.)", "setting": "[10]; High-dose 30 mg/kg single tail vein injection, Day 4", "result": "22.7 ± 0.7"}, {"measurement": "body weight (M ± S.E.)", "setting": "[10]; High-dose 30 mg/kg single tail vein injection, Day 5", "result": "22.9 ± 0.6"}, {"measurement": "body weight (M ± S.E.)", "setting": "[10]; High-dose 30 mg/kg single tail vein injection, Day 6", "result": "22.5 ± 0.6"}, {"measurement": "body weight (M ± S.E.)", "setting": "[10]; High-dose 30 mg/kg single tail vein injection, Day 7", "result": "23.1 ± 0.4"}, {"measurement": "body weight (M ± S.E.)", "setting": "[10]; Low-dose 10 mg/kg single tail vein injection, Day 0 (day before administration)", "result": "24.2 ± 0.8"}, {"measurement": "body weight (M ± S.E.)", "setting": "[10]; Low-dose 10 mg/kg single tail vein injection, Day 1", "result": "24.5 ± 0.8"}, {"measurement": "body weight (M ± S.E.)", "setting": "[10]; Low-dose 10 mg/kg single tail vein injection, Day 2", "result": "23.3 ± 1.1"}, {"measurement": "body weight (M ± S.E.)", "setting": "[10]; Low-dose 10 mg/kg single tail vein injection, Day 3", "result": "23.4 ± 1.0"}, {"measurement": "body weight (M ± S.E.)", "setting": "[10]; Low-dose 10 mg/kg single tail vein injection, Day 4", "result": "23.7 ± 1.1"}, {"measurement": "body weight (M ± S.E.)", "setting": "[10]; Low-dose 10 mg/kg single tail vein injection, Day 5", "result": "24.1 ± 1.0"}, {"measurement": "body weight (M ± S.E.)", "setting": "[10]; Low-dose 10 mg/kg single tail vein injection, Day 6", "result": "24.4 ± 0.8"}, {"measurement": "body weight (M ± S.E.)", "setting": "[10]; Low-dose 10 mg/kg single tail vein injection, Day 7", "result": "24.7 ± 0.7"}, {"measurement": "body weight (M ± S.E.)", "setting": "[10]; Medium-dose 20 mg/kg single tail vein injection, Day 0 (day before administration)", "result": "24.7 ± 0.2"}, {"measurement": "body weight (M ± S.E.)", "setting": "[10]; Medium-dose 20 mg/kg single tail vein injection, Day 1", "result": "24.1 ± 0.5"}, {"measurement": "body weight (M ± S.E.)", "setting": "[10]; Medium-dose 20 mg/kg single tail vein injection, Day 2", "result": "22.8 ± 0.4"}, {"measurement": "body weight (M ± S.E.)", "setting": "[10]; Medium-dose 20 mg/kg single tail vein injection, Day 3", "result": "22.7 ± 0.4"}, {"measurement": "body weight (M ± S.E.)", "setting": "[10]; Medium-dose 20 mg/kg single tail vein injection, Day 4", "result": "22.8 ± 0.5"}, {"measurement": "body weight (M ± S.E.)", "setting": "[10]; Medium-dose 20 mg/kg single tail vein injection, Day 5", "result": "23.3 ± 0.6"}, {"measurement": "body weight (M ± S.E.)", "setting": "[10]; Medium-dose 20 mg/kg single tail vein injection, Day 6", "result": "23.7 ± 0.7"}, {"measurement": "body weight (M ± S.E.)", "setting": "[10]; Medium-dose 20 mg/kg single tail vein injection, Day 7", "result": "24.0 ± 0.7"}, {"measurement": "average body weight change of mice", "setting": "[10]; doses of 30 mg/kg or less, single tail vein injection", "result": "not more than 5%"}, {"measurement": "MTD at 7 days", "setting": "[10]; female, NOD/SCID, mouse, in vivo, single tail vein injection, 7 days observation, read-out: dose safe to be administered (maximum tolerated dose test)", "result": "≤ 30", "unit": "mg/kg"}]}]}
